Assay results taken from PubChem BioAssay (NCI).
Where “and” joins values, the source holds several entries; their conditions need not be identical. Equal values may be shown once.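 Cells were grown in 96-well plates and exposed to each compound for 48 hours at five concentrations; endpoints were interpolated linearly between bracketing concentrations, or set to the highest concentration if not reached. GI50 marks 50% less growth. TGI: total growth inhibition.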

System: LOX IMVI melanoma
Test: NCI anticancer screen, dose series, 48 h

Row | Compound | TGI | GI50
1 | Cn1c(=O)c2[nH]c(SCc3ccccn3)nc2n(C)c1=S | > 100 µM | –
2 | COc1cc2c(c(O)c1Br)C(=O)c1c(O)cc(C[C@H](C)O)cc1[C@H]2[C@H]1c2cc(C[C@H](C)O)cc(O)c2C(=O)c2c1cc(OC)c(Br)c2O | 16.2 µM and 34.4 µM | 6.57 µM and 11.4 µM
3 | COc1ccc(-c2cc(=O)c3ccc(O)cc3o2)cc1OC | > 100 µM | –
4 | CC[C@]1(O)C[C@@H]2CN(CCc3c([nH]c4ccccc34)[C@@](C(=O)OC)(c3cc4c(cc3OC)N(C)[C@H]3[C@@](O)(C(=O)OC)[C@H](OC(C)=O)[C@]5(CC)C=CCN6CC[C@]43[C@@H]65)C2)C1 | 14.8 µM | < 0.01 µM
5 | N#CSc1c[nH]c2cccc(/C=C/C(=O)/C=C(/C=C/c3cccc4[nH]cc(SC#N)c34)OB(F)F)c12 | 0.677 µM | 0.243 µM
6 | COc1cc([N+](=O)[O-])cc2c3c(n(C)c12)[C@@]1(C)CCC2c4ccc(OCc5ccccc5)cc4CCC2C1C3 (some centres not stated) | > 100 µM | 65 µM
7 | C=CC(=O)N1CC2(CCN(c3nc(OC4CCN(CCCOC)CC4)nc4c(OCC(F)(F)F)c(-c5c(C)ccc6[nH]ncc56)c(C5CC5)cc34)CC2)C1 | 3.15 µM | 1.7 µM
8 | FC(F)(F)c1cccc(Nc2nccc(-c3cnn4nc(-c5ccccc5)ccc34)n2)c1 | > 17.7 µM | 6.18 µM
9 | CC[C@@H]1C(=O)N(C)c2cnc(Nc3ccc(C(=O)NC4CCN(C)CC4)cc3OC)nc2N1C1CCCC1 | 1.33 µM and 1.53 µM | 0.00414 µM and < 0.01 µM
10 | C=C1C(=O)O[C@H]2[C@H]1CC/C(COC(=O)c1ccc3ccccc3c1)=C\CC[C@@]1(C)O[C@@H]21 | 1.46 µM | 0.406 µM
11 | Nc1nc(Cl)c2ncn(Cc3ccc(C45CC6CC(CC(C6)C4)C5)c(O)c3)c2n1 | 13 µM | 2.38 µM
12 | CCC(C)c1c(Cl)nc(Cl)nc1Cl (configuration not stated) | > 100 µM | –
13 | COc1ccc(/C=C/c2nccc3ccccc23)cc1OC | > 10 µM | –

System: MCF7 breast
Test: NCI anticancer screen, dose series, 48 h

Row | Compound | GI50 | TGI
14 | COC(=O)[C@]12CC[C@@H](C)[C@H](C)[C@@H]1C1=CC[C@@H]3[C@@]4(C)C/C(=N\O)[C@H](O)[C@@]5(C)COC(=C45)C[C@@]3(C)[C@]1(C)CC2 | 3.5 µM | 15.3 µM
15 | Oc1c(CN2CCC(N3CCCCC3)CC2)cc(Cc2cc(CN3CCC(N4CCCCC4)CC3)c(O)c3ncccc23)c2cccnc12 | 0.865 µM | 10.3 µM
16 | Cn1c2ccccc2c2c(-c3ccccc3)[n+]3ccncc3nc21 | 63.6 µM | > 100 µM
17 | C[C@@H]1OC(O)[C@@H](F)[C@H](O)[C@@H]1O (some centres not stated) | > 100 µM | > 100 µM
18 | COc1ccc(-c2cnnc3c(-c4cccc(C(F)(F)F)c4)cnn23)cc1 | > 100 µM | > 100 µM
19 | NC(=O)c1ccc(I)c(N)c1 | > 100 µM | > 100 µM
20 | C=CCCCCCCCCC(=O)[O][Sn]([CH2]CCC)([CH2]CCC)[CH2]CCC | 0.137 µM | 0.272 µM
21 | CC/C(=C(/c1ccc(O)cc1)c1ccc(OCCNC)cc1)c1ccccc1 | 0.0324 µM | 2.95 µM
22 | O=C(/C(Br)=C/c1ccccc1)c1ccccc1 | 4.79 µM | 52.9 µM
23 | O=C1CCCCN1CCCCC#Cc1ccccc1C#Cc1ccc([N+](=O)[O-])cc1 | 1.38 µM | 3.65 µM
24 | CCOc1cc2c(Cl)ncnc2c(OCC)c1OCC | 2.3 µM | 7.55 µM
25 | Oc1ccc2ccccc2c1N=Nc1nccs1 | 0.471 µM | 16.7 µM
26 | Cn1c(=O)c2[nH]c(SCc3ccccn3)nc2n(C)c1=S | – | > 100 µM
27 | COc1cc2c(c(O)c1Br)C(=O)c1c(O)cc(C[C@H](C)O)cc1[C@H]2[C@H]1c2cc(C[C@H](C)O)cc(O)c2C(=O)c2c1cc(OC)c(Br)c2O | 2.44 µM and 3.58 µM | 67.5 µM and > 100 µM
28 | COc1ccc(-c2cc(=O)c3ccc(O)cc3o2)cc1OC | – | > 100 µM
29 | CC[C@]1(O)C[C@@H]2CN(CCc3c([nH]c4ccccc34)[C@@](C(=O)OC)(c3cc4c(cc3OC)N(C)[C@H]3[C@@](O)(C(=O)OC)[C@H](OC(C)=O)[C@]5(CC)C=CCN6CC[C@]43[C@@H]65)C2)C1 | < 0.01 µM | 32.3 µM
30 | N#CSc1c[nH]c2cccc(/C=C/C(=O)/C=C(/C=C/c3cccc4[nH]cc(SC#N)c34)OB(F)F)c12 | 0.459 µM | 3.63 µM
31 | COc1cc([N+](=O)[O-])cc2c3c(n(C)c12)[C@@]1(C)CCC2c4ccc(OCc5ccccc5)cc4CCC2C1C3 (some centres not stated) | > 100 µM | > 100 µM
32 | C=CC(=O)N1CC2(CCN(c3nc(OC4CCN(CCCOC)CC4)nc4c(OCC(F)(F)F)c(-c5c(C)ccc6[nH]ncc56)c(C5CC5)cc34)CC2)C1 | 1.67 µM | 3.37 µM
33 | FC(F)(F)c1cccc(Nc2nccc(-c3cnn4nc(-c5ccccc5)ccc34)n2)c1 | 6.82 µM | > 25 µM
34 | CC[C@@H]1C(=O)N(C)c2cnc(Nc3ccc(C(=O)NC4CCN(C)CC4)cc3OC)nc2N1C1CCCC1 | 0.00331 µM and < 0.01 µM | > 4.96 µM and 5.55 µM
35 | C=C1C(=O)O[C@H]2[C@H]1CC/C(COC(=O)c1ccc3ccccc3c1)=C\CC[C@@]1(C)O[C@@H]21 | 0.457 µM | 2.52 µM
36 | Nc1nc(Cl)c2ncn(Cc3ccc(C45CC6CC(CC(C6)C4)C5)c(O)c3)c2n1 | 3.14 µM | 13 µM
37 | CCC(C)c1c(Cl)nc(Cl)nc1Cl (configuration not stated) | – | 22 µM
38 | O=C1Nc2c(C(F)(F)F)cccc2[C@]1(c1ccc(O)cc1)c1ccc(OC(F)(F)F)cc1 | 4.05 µM | 16.9 µM
39 | COc1ccc(/C=C/c2nccc3ccccc23)cc1OC | – | > 10 µM

System: MDA-MB-231 breast
Test: NCI anticancer screen, dose series, 48 h

Row | Compound | GI50 | TGI
40 | COC(=O)[C@]12CC[C@@H](C)[C@H](C)[C@@H]1C1=CC[C@@H]3[C@@]4(C)C/C(=N\O)[C@H](O)[C@@]5(C)COC(=C45)C[C@@]3(C)[C@]1(C)CC2 | 3.84 µM | 16 µM
41 | Oc1c(CN2CCC(N3CCCCC3)CC2)cc(Cc2cc(CN3CCC(N4CCCCC4)CC3)c(O)c3ncccc23)c2cccnc12 | 0.329 µM | 14.4 µM
42 | Cn1c2ccccc2c2c(-c3ccccc3)[n+]3ccncc3nc21 | > 100 µM | > 100 µM
43 | C[C@@H]1OC(O)[C@@H](F)[C@H](O)[C@@H]1O (some centres not stated) | > 100 µM | > 100 µM
44 | COc1ccc(-c2cnnc3c(-c4cccc(C(F)(F)F)c4)cnn23)cc1 | 3.55 µM | > 100 µM
45 | NC(=O)c1ccc(I)c(N)c1 | > 100 µM | > 100 µM
46 | C=CCCCCCCCCC(=O)[O][Sn]([CH2]CCC)([CH2]CCC)[CH2]CCC | 0.14 µM | 0.304 µM
47 | CC/C(=C(/c1ccc(O)cc1)c1ccc(OCCNC)cc1)c1ccccc1 | 1.39 µM | 3.09 µM
48 | O=C(/C(Br)=C/c1ccccc1)c1ccccc1 | 2.44 µM | 5.12 µM
49 | O=C1CCCCN1CCCCC#Cc1ccccc1C#Cc1ccc([N+](=O)[O-])cc1 | 12.8 µM | 51.4 µM
50 | CCOc1cc2c(Cl)ncnc2c(OCC)c1OCC | 11.9 µM | 24.9 µM
51 | Oc1ccc2ccccc2c1N=Nc1nccs1 | 0.745 µM | > 100 µM
52 | Cn1c(=O)c2[nH]c(SCc3ccccn3)nc2n(C)c1=S | – | > 100 µM
53 | COc1cc2c(c(O)c1Br)C(=O)c1c(O)cc(C[C@H](C)O)cc1[C@H]2[C@H]1c2cc(C[C@H](C)O)cc(O)c2C(=O)c2c1cc(OC)c(Br)c2O | 3.76 µM and 14.1 µM | 21.7 µM and 34.8 µM
54 | COc1ccc(-c2cc(=O)c3ccc(O)cc3o2)cc1OC | – | > 100 µM
55 | CC[C@]1(O)C[C@@H]2CN(CCc3c([nH]c4ccccc34)[C@@](C(=O)OC)(c3cc4c(cc3OC)N(C)[C@H]3[C@@](O)(C(=O)OC)[C@H](OC(C)=O)[C@]5(CC)C=CCN6CC[C@]43[C@@H]65)C2)C1 | < 0.01 µM | 11.2 µM
56 | N#CSc1c[nH]c2cccc(/C=C/C(=O)/C=C(/C=C/c3cccc4[nH]cc(SC#N)c34)OB(F)F)c12 | 0.442 µM | 1.57 µM
57 | COc1cc([N+](=O)[O-])cc2c3c(n(C)c12)[C@@]1(C)CCC2c4ccc(OCc5ccccc5)cc4CCC2C1C3 (some centres not stated) | 62.6 µM | > 100 µM
58 | C=CC(=O)N1CC2(CCN(c3nc(OC4CCN(CCCOC)CC4)nc4c(OCC(F)(F)F)c(-c5c(C)ccc6[nH]ncc56)c(C5CC5)cc34)CC2)C1 | 1.98 µM | 3.94 µM
59 | FC(F)(F)c1cccc(Nc2nccc(-c3cnn4nc(-c5ccccc5)ccc34)n2)c1 | 5.58 µM | > 20.9 µM
60 | CC[C@@H]1C(=O)N(C)c2cnc(Nc3ccc(C(=O)NC4CCN(C)CC4)cc3OC)nc2N1C1CCCC1 | 0.00552 µM | 3.21 µM
61 | C=C1C(=O)O[C@H]2[C@H]1CC/C(COC(=O)c1ccc3ccccc3c1)=C\CC[C@@]1(C)O[C@@H]21 | 1.35 µM | 3 µM
62 | Nc1nc(Cl)c2ncn(Cc3ccc(C45CC6CC(CC(C6)C4)C5)c(O)c3)c2n1 | 1.85 µM | 11.4 µM
63 | O=C1Nc2c(C(F)(F)F)cccc2[C@]1(c1ccc(O)cc1)c1ccc(OC(F)(F)F)cc1 | 13 µM | 26.2 µM
64 | COc1ccc(/C=C/c2nccc3ccccc23)cc1OC | – | > 10 µM
